Results published in US4599331A, “Etianic acids as antiangiogenics” (Syntex (U.S.A.) Inc., priority 1984, dated 1986).
“And” between values parts separate entries of the source, which are not always exact repeats. Equal entries are not always repeated. Where two headings read alike, the source gives them in different places.

Columns and labels:
[1] = system: tyrosine aminotransferase (TAT); experiment: tyrosine aminotransferase (TAT) induction in HTC cells; assay type: cell-based, rat; conditions: for Emax: from 10^-6 M down, relative to dexamethasone = 1, read-out: Efficacy (DEX = 1) TAT
Protocol: In this example, tyrosine aminotransferase (TAT) activity was determined by a spectrophotometric assay. This enzyme catalyzes the conversion of tyrosine to p-hydroxyphenylpyruvate. This example is a standard in vitro test for glucocorticoid activity.
Addition of base caused the conversion of p-hydroxyphenylpyruvate to p-hydroxybenzaldehyde, which was quantitatively measured by absorbance at 331 nm. HTC cells, the target cells for the compound tested were grown in DMEM+10% FCS. Subconfluent cell cultures were incubated with test compounds in 6 well Costar dishes for 24 or 48 hours. The cells were incubated in either serum-free DMEM or DMEM containing 10% FCS previously filtered over activated charcoal. The cells were harvested in PBS using a rubber policeman, then washed once in PBS by centrifugation and resuspended in a 0.3 ml lysis buffer of 10 mM Tris, 10 mM EDTA and 0.25M sucrose at pH 7.4. The cells were then lysed by three cycles of freeze-thawing using dry ice and a 37° C. waterbath and the cells debris was pelleted by centrifugation for 2 min at 12,000 9 in an Eppendorf centrifuge.
The supernatant was used for a protein determination using either E+K stain or BioRad protein assay kit and TAT activity. 0.1 ml TAT buffer having 50 mM KH2 PO4, 1 mM EDTA, 0.1 mM Dithiothereitol (DTT), and 5 mg/ml BSA at pH 7.6 and 0.1 ml cell extract were mixed in glass tubes. A prewarmed mixture of 200 parts of a 2.3 mg/ml tyrosine solution in 0.05M phosphate buffer, 100 parts 0.125M KH2 PO4, 10 parts of a 0.92 mg/ml and ketoglutarate solution and 1 part of a 0.04 mg/ml pyridoxalphosphate solution had been previously made up. […] of the prewarmed mixture was added to each tube and allowed to react at 37° C. for 15 min. The addition of 0.1 ml 7N […] stopped the reaction. The mixture was then immediately vortexed.
Aldehyde formation was allowed to proceed at 37° C. for 30 min. The amound of aldehyde formed was determined by UV spectroscopic means. Absorbance was read at 331 nm using a solution composed of 0.1 ml TAT buffer, 0.1 ml lysis buffer, 0.7 ml reaction mixture and 0.1 ml 7N KOH as a blank. Optical Density values are linearily corrected for protein content.
As the absolute amount of enzyme induction varies between experiments, results are expressed as percent of the maximal induction obtained with dexamethasone, which was run as a standard in each assay.
In this series, compounds were assayed from 10^-6 M down. Results are expressed in the TAT column of tables 1, and 2 as the induction ability of a compound as compared to dexamethasone; a compound may either be a partial inducer or a superinducer.

[2] = system: alkaline phosphatase (APb); experiment: alkaline phosphatase (APb) induction in LE II cells; assay type: cell-based, mouse; conditions: for Emax: Mus musculus, Table 1, about 65 hours, relative to dexamethasone = 1, read-out: Efficacy (DEX = 1) Alk P
Protocol: This is another standard test for glucocorticoid activity.
LE II cells were grown in DMEM plus 10% FCS, at 37° C., in a 10% carbon dioxide atmosphere. Confluent monolayers of cells were trypsinized and seeded at a 1:15 dilution into 6-well Costar cluster dishes. […] In all experiments, DEX, at concentrations of 10^-9 to 10^-6 M, was added to some of the wells as a positive control.
Cell monolayers were washed with PBS and harvested by scraping with a rubber policeman into 400 μl of a buffer of 20 mM Tris-HCl at pH 7.4; 2 mM MgCl2; and 150 mM NaCl together with 1% Triton X-100. Samples were transferred into 1.5 ml Eppendorf centrifuge tubes and placed on ice. The tubes were first vortexed and then centrifuged in the Eppendorf minicentrifuge for 2 minutes. Duplicate 100 μl aliquots of supernatant were placed into 12×75 mm glass test tubes for determination of APb activity, while the rest was saved for protein determination. […] The tubes were incubated in a 37° C. water bath for between 20 to 50 minutes, depending on the activity of the samples. The APb reaction was terminated by the addition of 0.5 ml of […]. The tubes were mixed and 200 μl portions from each tube were transferred in triplicate to a 96 well microtiter plate. The OD410 nm of each well was then determined using a Dynatech plate reader.
[…] of the cell supernatant were transferred to 96 well microtiter plates for protein determination by a modification of the Lowry method. […] The plates were shaken for 1 hour and then the OD630 was determined using a Dynatech plate reader. The protein content for each sample was calculated by comparing the average OD630 reading with those obtained for a bovine serum albumin standard curve.
The alkaline phosphatase activity of in each sample was expressed as μmoles product formed per minute per mg protein in the Alk P column of Tables 1 and 2. Results are expressed as the induction ability of a compound as compared to dexamethasone.

[3] = system: Hamster Melanoma RPM1 1846 tumor cells; experiment: hamster cheek pouch (HCP) angiogenesis inhibition, 1846 tumor cell stimulus; assay type: in vivo, Male Syrian Golden hamsters; conditions: 3×10^5 tumor cells; for % Inhibition HCP Stimulus 1846: Table 1, between 0.5 and 4 mg/kg s.c. daily, each number independent result, average of six animals; for HCP % Inhibition Stimulus 1846: Table 2, compounds given daily at 0.4 mg/kg
Protocol: (§1) Each compound of the series was also tested for anti-angiogenic activity by an in vivo test that measured vascularization in a hamster's cheek pouch in response to either an angiogenic polypeptide growth factor, epidermal growth factor (EGF) or an induced […].
(§2) In this example, the in vivo angiogenesis inhibition activity of etianic acid esters was tested. Male Syrian Golden hamsters, weighing between 120 g and 150 g were anaesthetized by intraperitoneal (I.P.) injection of a rodent anaesthetic mixture consisting of 50 mg/kg ketamine hydrochloride, 5 mg/kg xylazine and 1 mg/kg acepromazine. The left cheek pouch of each animal was everted with a pincet and pinned down to a plexiglass-rubber stage and observed through a Zeiss stereomicroscope. 10 μg of EGF or 3×10^5 Hamster Melanoma RPM1 1846 tumor cells in 10 μl Cibachrome Blue agarose (Amicon) were injected subcutaneously in the left lower quadrant of the pouch with a Hamilton syringe.
(§3) The pouch was then reinserted and animals were kept under observation until recovered from anaesthesia.
(§4) The animals were dosed daily with one test compound, starting one day before stimulus injection and continuing until observation. The test compounds were dissolved in a minimum volume of ethanol and diluted in sterile phosphate buffer solution. […]
(§5) Either five days or twelve days after the EGF or tumor cell injection, animals were anaesthetized by I.P. injection of the rodent anaesthetic mixture. The pouch was everted on the stage and examined under the stereomicroscope. Pictures were taken with a 35 mm using Kodak Tungsten 50 professional films.
(§6) The following subjective scoring was used for evaluating the photographs:
(§7) 1: minimal branching of vessels in the vicinity of injection site.
(§8) 2: new vessels reach injection site, area involved is minimal (<50% of area surrounding injection site).
(§9) 3: many vessels reach and cross injection site, new vessels are tortuous, (>50% of area surrounding injection site).
(§10) 4: "full blown", many tortuous vessels, leakages, hemorrhages, 100% of area around injection site, invasion of new vessels into non-injected areas.
(§11) In the case of the tumor, tumor size was also determined. (See Table 4)
(§12) Results are expressed as the mean of the score. The results are shown in Tables 1 and 2 are percent inhibition of HCP Stimulus.

Epidermal Growth Factor = experiment: hamster cheek pouch (HCP) angiogenesis inhibition, EGF stimulus; assay type: in vivo, Male Syrian Golden hamsters; conditions: 10 μg EGF; for % Inhibition HCP Stimulus Epidermal Growth Factor: Table 1, between 0.5 and 4 mg/kg s.c. daily, each number independent result, average of six animals; for HCP % Inhibition Stimulus EGF: Table 2, compounds given daily at 0.4 mg/kg
Protocol: as §1, §2, §3, §4, §5, §6, §7, §8, §9, §10, §12

[4] = system: Hamster Melanoma RPM1 1846 tumor cells; experiment: Inhibition of tumor growth (2 week assay); assay type: in vivo, Male Syrian Golden hamsters; conditions: Table 3, dose 0.8 mg/kg; for Angiogenesis score: mean of score 0 (no new vessels) to 4 (full blown), untreated 3.1 [A], 2.9 [B]; for Tumor area Mn (mm^2): untreated 40.7 ± 16.2 [A], 27.5 ± 15.3 [B]
Protocol: as §2, §3
The animals were dosed daily with one test compound, starting one day before stimulus injection and continuing until observation. The test compounds were dissolved in a minimum volume of ethanol and diluted in sterile phosphate buffer solution. Then between 0.5 and 4 mg/kg of the test compound was injected subcutaneously.
as §5, §6, §7, §8, §9, §10, §11, §12

[5] = Rattus norvegicus, Table 1, 24 or 48 hours
[6] = Rattus norvegicus, Table 2, 24 or 48 hours

SMILES: C[C@@H]1C[C@H]2[C@@H]3CCC4=CC(=O)C=C[C@]4(C)[C@@]3(F)[C@@H](O)C[C@]2(C)[C@@]1(O)C(=O)CO [Dexamethasone, dexamethasone, reference compound]
- concentration inducing maximal TAT activity [1]: 10^-7 M
- EC50 ([1]; Rattus norvegicus): ~20 nM
- incubation time to maximum induction of alkaline phosphatase activity ([2]; preliminary experiments): 48 to 72 h

SMILES: CCC(=O)O[C@]1(C(=O)OC)[C@@H](C)C[C@H]2[C@@H]3CC(F)C4=CC(=O)C=C[C@]4(C)[C@@]3(F)[C@@H](O)C[C@@]21C (stereo partly shown) [compound 2]
- Emax [1, 5]: 80%
- % Inhibition HCP Stimulus 1846 [3]: 33% and 35%
- % Inhibition HCP Stimulus Epidermal Growth Factor (Epidermal Growth Factor): 100%
- Angiogenesis % Inh. [4]: 35%
- Tumor area % (inhibition of tumor growth) [4]: 58%
- Angiogenesis score [4]: 1.9
- Tumor area Mn (mm^2) [4]: 11.6 ± 10.3 mm^2
- Emax [2]: 90%

SMILES: COC(=O)[C@@]1(OC=O)[C@H](C)C[C@H]2[C@@H]3CC(F)C4=CC(=O)C=C[C@]4(C)[C@@]3(F)[C@@H](O)C[C@@]21C (stereo partly shown) [compound 5]
- % Inhibition HCP Stimulus Epidermal Growth Factor (Epidermal Growth Factor): -25%

SMILES: COC(=O)[C@@]1(OC(C)=O)[C@H](C)C[C@H]2[C@@H]3CC(F)C4=CC(=O)C=C[C@]4(C)[C@@]3(F)[C@@H](O)C[C@@]21C (stereo partly shown) [compound 6]
- Emax [1, 5]: 70%
- % Inhibition HCP Stimulus Epidermal Growth Factor (Epidermal Growth Factor): 23%

SMILES: CCCCC(=O)O[C@]1(C(=O)OC)[C@H](C)C[C@H]2[C@@H]3CC(F)C4=CC(=O)C=C[C@]4(C)[C@@]3(F)[C@@H](O)C[C@@]21C (stereo partly shown) [compound 10]
- Emax [1, 5]: 90%
- % Inhibition HCP Stimulus 1846 [3]: 24%
- % Inhibition HCP Stimulus Epidermal Growth Factor (Epidermal Growth Factor): 100%
- Angiogenesis % Inh. [4]: 23%
- Tumor area % (inhibition of tumor growth) [4]: 45%
- Angiogenesis score [4]: 2.4
- Tumor area Mn (mm^2) [4]: 22.5 ± 13.7 mm^2
- Emax [2]: 70%

SMILES: CCC(=O)O[C@]1(C(=O)SC)[C@@H](C)C[C@H]2[C@@H]3CC(F)C4=CC(=O)C=C[C@]4(C)[C@@]3(F)C(O)C[C@@]21C (stereo partly shown) [compound 11]
- Emax [1, 6]: 140%
- HCP % Inhibition Stimulus 1846 [3]: 28%
- HCP % Inhibition Stimulus EGF (Epidermal Growth Factor): 100%

SMILES: CCCC(=O)O[C@]1(C(=O)SC)[C@@H](C)C[C@H]2[C@@H]3CCC4=CC(=O)C=C[C@]4(C)[C@@]3(F)C(O)C[C@@]21C (stereo partly shown) [compound 12]
- Emax [1, 6]: 130%
- HCP % Inhibition Stimulus EGF (Epidermal Growth Factor): 37%

SMILES: CCCC(=O)O[C@]1(C(=O)SC)[C@@H](C)C[C@H]2[C@@H]3CC(F)C4=CC(=O)C=C[C@]4(C)[C@@]3(F)[C@@H](O)C[C@@]21C (stereo partly shown) [compound 13]
- Emax [1, 6]: 90%
- HCP % Inhibition Stimulus 1846 ([3]; 0.4 mg/kg): 40% and 53% and 45%
- HCP % Inhibition Stimulus EGF (Epidermal Growth Factor; 0.4 mg/kg): 94% and 84%
- Angiogenesis % Inh. [4]: 42%
- Tumor area % (inhibition of tumor growth) [4]: 78%
- Angiogenesis score [4]: 1.8
- Tumor area Mn (mm^2) [4]: 9.1 ± 3 mm^2

SMILES: CCCCC(=O)O[C@]1(C(=O)SC)[C@@H](C)C[C@H]2[C@@H]3CC(F)C4=CC(=O)C=C[C@]4(C)[C@@]3(F)C(O)C[C@@]21C (stereo partly shown) [compound 14]
- Emax [1, 6]: 60%
- HCP % Inhibition Stimulus 1846 [3]: 16%
- HCP % Inhibition Stimulus EGF (Epidermal Growth Factor; 0.4 mg/kg): 22% and 42%

SMILES: CCC(=O)O[C@]1(C(=O)SC)[C@H](C)C[C@H]2[C@@H]3CCC4=CC(=O)C=C[C@]4(C)[C@@]3(F)C(O)C[C@@]21C (stereo partly shown) [compound 15]
- HCP % Inhibition Stimulus EGF (Epidermal Growth Factor): 30%

SMILES: CCC(=O)O[C@]1(C(=O)SC)[C@H](C)C[C@H]2[C@@H]3CC(F)C4=CC(=O)C=C[C@]4(C)[C@@]3(F)C(O)C[C@@]21C (stereo partly shown) [compound 16]
- Emax [1, 6]: 120%
- HCP % Inhibition Stimulus 1846 ([3]; 0.4 mg/kg): 25% and 35%
- HCP % Inhibition Stimulus EGF (Epidermal Growth Factor): 46%

SMILES: CCCC(=O)O[C@]1(C(=O)SC)[C@H](C)C[C@H]2[C@@H]3CC(F)C4=CC(=O)C=C[C@]4(C)[C@@]3(F)C(O)C[C@@]21C (stereo partly shown) [compound 18]
- Emax [1, 6]: 130%
- HCP % Inhibition Stimulus 1846 [3]: 16%
